Nine compounds from PubChem BioAssay (NCI) can be followed below.

One may read the TGI as the concentration at which net growth stops. The low end stands for greater sensitivity of the cells, the high end for lower sensitivity of the cells. What is called GI50 is the concentration that inhibits growth by half.

“And” between values parts separate entries of the source, which are not always exact repeats. Equal values may be shown once.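 Each compound was tested at five concentrations against cells in 96-well plates for 48 hours. GI50 marks 50% less growth. Definition used: TGI = concentration required for complete inhibition of growth.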 Bounds are passed on as bounds.

Some test systems named below: A498 renal; A549 NSCLC; K-562 leukemia; M14 melanoma; NCI-H226 lung; NCI-H460 lung; RXF 393 renal; SF-295 CNS; TK-10 renal; UACC-62 melanoma.
Common to all, as to experiment: DTP human tumour cell line panel, 48 h

As to `CC(C)(C)NNC(=O)CCn1[nH]c(=O)c(Cl)c(Cl)c1=O`, the TGI in the assay on A498 renal, in the assay on A549 NSCLC, in the assay with K-562 leukemia, with M14 melanoma, in the assay on NCI-H226 lung and in the assay with NCI-H460 lung was more than 100 µM throughout. For the same compound, the TGI with RXF 393 renal, in the assay on SF-295 CNS, in the assay with TK-10 renal and with UACC-62 melanoma was more than 100 µM throughout.

`NC(N)=N/N=C/c1c(-c2ccsc2)nc2sccn12`: the GI50 in the assay with A498 renal was 17.5 µM; with A549 NSCLC, 21.7 µM; in the assay on K-562 leukemia, 13.1 µM; with M14 melanoma it was 18.5 µM; with NCI-H226 lung, 16.4 µM; in the assay with NCI-H460 lung it was 14.8 µM. Moreover, the GI50 is 17.9 µM with RXF 393 renal, 11.4 µM in the assay with SF-295 CNS, 10.8 µM in the assay on TK-10 renal and 15.6 µM in the assay with UACC-62 melanoma. Moreover, the TGI was 31.8 µM in the assay with A498 renal; 43.7 µM in the assay with A549 NSCLC; 29.9 µM in the assay on K-562 leukemia; 32.4 µM with M14 melanoma; 31.2 µM in the assay with NCI-H226 lung; 28 µM in the assay on NCI-H460 lung. Moreover, the TGI in the assay on RXF 393 renal was determined as 40 µM; in the assay with SF-295 CNS, 23.6 µM; with TK-10 renal, 22.7 µM; in the assay on UACC-62 melanoma it was 29 µM.

Consider `CNCc1ccccc1-c1csc([C@@H](C)Nc2nc(C)nc3cc(OC)c(OC)cc23)c1`, for which the GI50 is 0.289 µM with A498 renal; 1.94 µM in the assay with A549 NSCLC; 0.168 µM in the assay on K-562 leukemia; 1.79 µM with M14 melanoma; 13.6 µM with NCI-H226 lung; 2.03 µM with NCI-H460 lung. The GI50 with RXF 393 renal is 1.31 µM; with SF-295 CNS, 1.45 µM; with TK-10 renal, 1.09 µM; in the assay with UACC-62 melanoma, 1.84 µM. In addition, the TGI was found to be 1.92 µM with A498 renal; 5.73 µM in the assay with A549 NSCLC; 1.57 µM with K-562 leukemia; 3.35 µM in the assay on M14 melanoma; 32.7 µM in the assay on NCI-H226 lung; 4.16 µM in the assay on NCI-H460 lung. For the same compound, the TGI worked out at 2.84 µM in the assay with RXF 393 renal, 2.88 µM in the assay with SF-295 CNS, 2.52 µM in the assay with TK-10 renal and 3.43 µM with UACC-62 melanoma.

For the compound `COc1cccc2c1C(=O)c1c(O)c3c(c(O)c1C2=O)C[C@@](O)(C(=O)CO)C[C@@H]3OC1CC(N)CC(C)O1` (stereo partly drawn), the GI50 with A498 renal was 0.111 µM and 0.0375 µM; with A549 NSCLC, 0.00992 µM and 0.0107 µM and 0.0315 µM; with K-562 leukemia, 0.0243 µM and 0.0414 µM; in the assay with M14 melanoma, 0.036 µM; with NCI-H226 lung, 0.00987 µM and 0.0723 µM and 0.0435 µM; in the assay with RXF 393 renal, 0.122 µM and 0.0806 µM. The 50% growth inhibitory concentration (GI50) with SF-295 CNS was 0.018 µM; in the assay with TK-10 renal it was 0.396 µM and 0.148 µM; in the assay with UACC-62 melanoma, 0.0308 µM. Also, the TGI was 0.366 µM and 0.165 µM in the assay with A498 renal; 0.783 µM and 0.406 µM in the assay on K-562 leukemia; 0.278 µM and 0.218 µM in the assay with M14 melanoma; 0.282 µM and 0.132 µM in the assay with NCI-H226 lung; 0.421 µM and 0.192 µM with NCI-H460 lung; 0.298 µM and 0.369 µM in the assay on RXF 393 renal. Further, the TGI in the assay on SF-295 CNS is 0.208 µM and 0.13 µM; in the assay on TK-10 renal it was 1.55 µM and 3.45 µM; with UACC-62 melanoma, 0.148 µM and 0.0691 µM.

Take `C=C1C(=O)OC2CC(C)C(C(CC(C)=O)OC(C)=O)=CCC12` (stereo not drawn): the TGI in the assay on A498 renal is 39.4 µM; in the assay on A549 NSCLC, more than 76.2 µM; with K-562 leukemia it was 17.9 µM; in the assay with M14 melanoma, 36.9 µM; in the assay with NCI-H226 lung, more than 66.4 µM; in the assay on NCI-H460 lung it was 41.9 µM. In addition, the TGI in the assay on RXF 393 renal came out at 32.2 µM; with SF-295 CNS, 62 µM; in the assay on TK-10 renal it was 31.1 µM; with UACC-62 melanoma it was 25.4 µM.

For `CCOC(=O)C1=CN(C)C=C(C(=O)OCC)C1c1cc(Br)c(OCC)c(OC)c1`, the GI50 was 4.99 µM with A498 renal; 81.7 µM with A549 NSCLC; more than 100 µM with K-562 leukemia; more than 100 µM with M14 melanoma; more than 100 µM with NCI-H226 lung; 43.5 µM in the assay on NCI-H460 lung. Besides, the GI50 in the assay on RXF 393 renal was 8.74 µM; in the assay on SF-295 CNS, 41.1 µM; in the assay on TK-10 renal it was more than 100 µM; in the assay with UACC-62 melanoma, 69.4 µM. For the same compound, the TGI in the assay with A498 renal was 94.9 µM; in the assay on A549 NSCLC, more than 100 µM; with K-562 leukemia it was more than 100 µM; with M14 melanoma, more than 100 µM; in the assay on NCI-H226 lung, more than 100 µM; in the assay with NCI-H460 lung it was more than 100 µM. In addition, the TGI in the assay on RXF 393 renal, in the assay with SF-295 CNS, with TK-10 renal and with UACC-62 melanoma was more than 100 µM each time.

For `CC1(C)S[C@@H]2[C@H](NC(=O)C3(N)CCCCC3)C(=O)N2[C@H]1C(=O)O`, the TGI with A498 renal, in the assay with A549 NSCLC, with K-562 leukemia, in the assay with M14 melanoma, with NCI-H226 lung and in the assay on NCI-H460 lung was more than 100 µM each time. Moreover, the TGI in the assay on RXF 393 renal, with SF-295 CNS, with TK-10 renal and in the assay on UACC-62 melanoma was more than 100 µM in each case.

For `Cc1cn2c(=O)c3ncn(C4OC(CO)C(O)C4O)c3n(C)c2n1` (stereo not drawn), the TGI in the assay on A498 renal, with A549 NSCLC, in the assay with K-562 leukemia, with M14 melanoma, with NCI-H226 lung and in the assay with NCI-H460 lung was more than 100 µM each time. The TGI in the assay with RXF 393 renal, in the assay with SF-295 CNS, with TK-10 renal and with UACC-62 melanoma was more than 100 µM in each case.

Turning to `O=C(O)COc1ccc2c(=O)c3sc4c(=O)c5ccccc5c(=O)c4c3c(=O)c2c1`, the GI50 in the assay on A498 renal is 14.7 µM; in the assay with A549 NSCLC it was 11.2 µM; in the assay on K-562 leukemia, 25.6 µM; with M14 melanoma it was 2.69 µM; with NCI-H226 lung, 15 µM; with NCI-H460 lung it was 3.51 µM. Moreover, the GI50 is 12.6 µM in the assay on RXF 393 renal, 6.72 µM with SF-295 CNS, 23 µM with TK-10 renal and 12 µM in the assay with UACC-62 melanoma. For the same compound, the TGI in the assay on A498 renal was determined as 28.1 µM; in the assay with A549 NSCLC it was 26.5 µM; with K-562 leukemia, 95.1 µM; in the assay with M14 melanoma, 7.53 µM; in the assay on NCI-H226 lung, 41.1 µM; in the assay with NCI-H460 lung it was 10.4 µM. Besides, the TGI is 28.1 µM with RXF 393 renal, 20.6 µM in the assay with SF-295 CNS, 46.5 µM in the assay with TK-10 renal and 39.4 µM with UACC-62 melanoma.
